Measurements reported in patent US6548042B2, “Bis-phosphonate compounds” (priority 2000, dated 2003).
Where two headings read alike, the source gives them in different places.

How the values were obtained:
[1] = Biodistribution of i.v. administered radioiodinated compounds in balb/c mice; conditions: for Bone-seeking properties: mouse, in vivo; for Discomfort or toxicity after administration of samples: single bolus tail vein injection, 100 μl;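 as to all read-outs here: healthy mice given radioiodinated bisphosphonic acids, with randomly chosen groups of three animals per time point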
Method: Mice. Samples of 100 μl containing 50,100, 400, 140 or 45 KBq of 31a, 34a, 46a, 67a or 72a, respectively, were injected into the tail veins as single bolus injections. […] At 0.5 h, 2 h, 5 h and 24 h postinjection times the animals were sacrificed; except in the case of the phosphate phosphonate derivative 31 were the animals were sacrificed 0.25 h, 2 h, 5 h and 24 h postinjection. Randomly selected groups of three animals were used at each time point. The whole animals were weighed and dissected. The excised organs, i.e. femur, skull, blood, heart, lung, liver, kidney, spleen, stomach, large intestine and small intestine, were weighed separately prior to counting.
Radioactivity measurements of the labelled compounds were carried out with a liquid scintillation counter (Beckman LS 6500, Beckman Instruments, USA) or with a Capintec CRC-7R radioisotope calibrator (Capintec, USA). The radioactivity level of the excised organs was measured with an automated gamma counter (LKB Wallac 1282, Turku, Finland).

OHS cells = conditions: 60 days; ^153Sm-EDTMP 800 MBq/kg, ^89Sr 20 MBq/kg, ifosfamide 150 mg/kg; cited from earlier work
MT-1 cells = conditions: repeated treatments (days 7 and 14); cited from earlier work
[2] = Swiss Webster mice, 20-25 g, 47 h; cited from earlier work
[3] = Sprague-Dawley rats, 220 g, 24 h; cited from earlier work
[4] = balb/c mice, 19-22 g, cited from earlier work

Molecule: O=P(O)(O)C(Cc1ccccc1)P(=O)(O)O [2h, phenylethylidenebisphosphonic acid]
- Uptake in femur ([1]; 2 h postinjection (peak), i.v.): 21±4 % ID/g
- Uptake in femur ([1]; 24 h postinjection, i.v.): 15±5 % ID/g

Molecule: O=P(O)(O)C(Cc1cccc([125I])c1)P(=O)(O)O [34a, m-[^125I and ^131I]-iodophenylethylidene-1,1-bisphosphonic Acid]
- Uptake in femur ([1]; 0.5 h (30 min) postinjection, i.v.): 18.8±0.51 % ID/g
- Activity in blood ([1]; 0.5 h postinjection, i.v.): 2.22±0.31 % ID/g
- Uptake in kidneys ([1]; 0.5 h postinjection, i.v.): 8.23±6.39 % ID/g
- Uptake in skull ([1]; 0.5 h postinjection, i.v.): 10.28±2.58 % ID/g
- Femur to soft tissue ratio ([1]; 24 h, soft tissue with highest uptake): > 14
- Uptake in femur ([1]; 24 h postinjection, i.v.): 15.25±4.89 % ID/g
- Uptake in kidneys ([1]; 24 h postinjection, i.v.): 1.06±0.10 % ID/g
- Uptake in skull ([1]; 24 h postinjection, i.v.): 7.13±2.73 % ID/g
- Bone-seeking properties [1]: potent bone-seekers
- Discomfort or toxicity after administration of samples [1]: No sign of discomfort or toxicity was observed

Molecule: O=P(O)(O)C(NCCc1cccc([131I])c1)P(=O)(O)O [67a, N-(m-[^131I]-iodophenylethyl)aminomethylene-bisphosphonic acid]
- Uptake in femur ([1]; 24 h postinjection, i.v.): 1.39±0.43 % ID/g
- Uptake in liver ([1]; 24 h postinjection, i.v.): 5.57±0.79 % ID/g
- Uptake in skull ([1]; 24 h postinjection, i.v.): 0.91±0.08 % ID/g
- Uptake in spleen ([1]; 24 h postinjection, i.v.): 2.49±0.37 % ID/g
- Bone-seeking properties [1]: lack bone seeking properties
- Discomfort or toxicity after administration of samples [1]: No sign of discomfort or toxicity was observed

Molecule: O=P(O)(O)C(CCc1cccc([131I])c1)P(=O)(O)O [72a, 3-(m-iodo-[^131I and ^125I]-phenyl)propylidene-1,1-bisphosphonic acid]
- Uptake in femur ([1]; 24 h postinjection, i.v.): 8.84±0.97 % ID/g
- Uptake in kidneys ([1]; 24 h postinjection, i.v.): 0.85±0.08 % ID/g
- Uptake in liver ([1]; 24 h postinjection, i.v.): 0.35±0.06 % ID/g
- Uptake in skull ([1]; 24 h postinjection, i.v.): 10.36±4.26 % ID/g
- Bone-seeking properties [1]: potent bone-seekers
- Discomfort or toxicity after administration of samples [1]: No sign of discomfort or toxicity was observed

Molecule: [89Sr] [^89Sr]
- Survival rate / disease-free rats (OHS cells): 20%
- Surviving / disease-free rats of rats treated (OHS cells): 2 of 10

Molecule: N.N.[Cl][Pt][Cl] [cisplatin]
- Effect on the metastatic growth (MT-1 cells): nor did they have any significant effect on the metastatic growth
- Survival after repeated treatments (MT-1 cells): have not improved survival

Molecule: O=P(O)(O)C(O)(c1cccc(I)c1)P(=O)(O)O [compound 2]
- Ratio between uptake in femur and stomach [2]: 1.7 (femur/stomach, Swiss Webster
- Uptake in femur expressed as % gram dose per gram tissue [2]: 299 (Swiss Webster mice, 20-25 g, 47 h) % gram dose per gram tissue
- Uptake in stomach [2]: 7.65 ± 0.02 % ID/g
- Uptake in the thyroid [2]: 0.414 ± 0.147 % injected dose/organ

Molecule: O=P(O)(O)C(c1ccc(O)c(I)c1)P(=O)(O)O [compound 3]
- Ratio between uptake in femur and kidney [3]: 1.5 (femur/kidney, Sprague-Dawley
- Uptake in femur expressed as % gram dose per gram tissue [3]: 438 (Sprague-Dawley rats, 220 g, 24 h) % gram dose per gram tissue
- Uptake in the thyroid [3]: 3829 (% ID/g,

Molecule: O=C(NCCC(O)(P(=O)(O)O)P(=O)(O)O)c1cccc(I)c1 [compound 4]
- Uptake in femur expressed as % gram dose per gram tissue ([4]; 2 h): 702 (balb/c mice, 19-22 g, 2 h) % gram dose per gram tissue
- Ratio between uptake in femur and spleen ([4]; 24 h): 3.2 (femur/spleen, balb/c mice,
- Uptake in stomach ([4]; 24 h): 0.93 ± 0.95 % ID/g
- Uptake in the thyroid ([4]; 24 h): 0.45 ± 0.36 % injected dose/organ

Molecule: COc1cccc2c1C(=O)c1c(O)c3c(c(O)c1C2=O)C[C@@](O)(C(=O)CO)C[C@@H]3O[C@H]1C[C@H](N)[C@H](O)[C@H](C)O1 [doxorubicin]
- Effect on the metastatic growth (MT-1 cells): nor did they have any significant effect on the metastatic growth
- Survival after repeated treatments (MT-1 cells): have not improved survival

Molecule: O=P1(NCCCl)OCCCN1CCCl (stereo not drawn) [ifosfamide]
- Survival rate / disease-free rats (OHS cells): 20%
- Surviving / disease-free rats of rats treated (OHS cells): 3 of 15

Molecule: ^153Sm-EDTMP
- Survival rate / disease-free rats (OHS cells): 62%
- Surviving / disease-free rats of rats treated (OHS cells): 8/13
